From US6589992B2, “Inhibiting collagen-induced platelet aggregation” (Parker Hughes Institute, priority 1999, dated 2003)
Entries after “also recorded” stand apart in the source; their conditions may differ.

Legend:
platelets = experiment: Inositol-1,4,5-trisphosphate production in collagen-stimulated platelets; type: cell-based, human
Description: Collagen stimulation was terminated by the addition of ice-cold 20% perchloric acid. Inositol-1,4,5,-trisphosphate (Ins-1,4,5-P3) levels were measured by using a D-myo-[^3H]inositol-1,4,5-trisphosphate assay system purchased from Amersham (Arlington Heights, Ill.), as reported (Uckun et al., 1991) (FIG. 2B). This highly sensitive assay is based on the competition between nonradiolabeled Ins-1,4,5-P3 in the cellular extracts and a fixed quantity of a high specific activity [^3H] Ins-1,4,5-P3 tracer for a limited number of binding sites on a Ins-1,4,5-P3-specific and sensitive bovine adrenal binding protein (Uckun et al., 1991).
Platelets were stimulated at 37 degrees C. with 2 μg/ml collagen for various times. Activation was stopped by the addition of ice cold 20% perchloric acid. The amount of inositol 1,4,5-triphosphate production was measured using a detection kit from Amersham.

SRC = biological target: T1, SRC (Homo sapiens, UniProt P12931); experiment: SRC activity in platelets; type: cell-based; details: data not shown
T1 construct: endogenous in cells; host or cells: platelets
T1 sequence (P12931 whole entry): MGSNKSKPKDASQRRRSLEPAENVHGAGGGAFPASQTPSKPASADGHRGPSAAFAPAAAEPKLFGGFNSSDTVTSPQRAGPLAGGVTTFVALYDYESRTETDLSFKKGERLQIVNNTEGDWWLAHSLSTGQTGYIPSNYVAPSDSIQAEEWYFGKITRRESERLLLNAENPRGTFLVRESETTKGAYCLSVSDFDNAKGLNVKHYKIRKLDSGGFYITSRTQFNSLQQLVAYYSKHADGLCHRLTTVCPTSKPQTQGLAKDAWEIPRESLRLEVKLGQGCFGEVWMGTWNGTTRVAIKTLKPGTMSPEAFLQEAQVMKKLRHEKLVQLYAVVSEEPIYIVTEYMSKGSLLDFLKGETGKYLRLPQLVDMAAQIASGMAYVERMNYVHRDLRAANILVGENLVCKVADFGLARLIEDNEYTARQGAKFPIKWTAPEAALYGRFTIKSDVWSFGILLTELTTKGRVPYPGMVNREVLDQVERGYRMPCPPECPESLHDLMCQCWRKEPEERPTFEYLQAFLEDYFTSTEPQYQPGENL

TEC kinase = biological target: T2, TEC kinase (Homo sapiens, UniProt P42680); experiment: TEC immune complex kinase assay from collagen-stimulated platelets; type: cell-based
T2 sequence (P42680 1-631): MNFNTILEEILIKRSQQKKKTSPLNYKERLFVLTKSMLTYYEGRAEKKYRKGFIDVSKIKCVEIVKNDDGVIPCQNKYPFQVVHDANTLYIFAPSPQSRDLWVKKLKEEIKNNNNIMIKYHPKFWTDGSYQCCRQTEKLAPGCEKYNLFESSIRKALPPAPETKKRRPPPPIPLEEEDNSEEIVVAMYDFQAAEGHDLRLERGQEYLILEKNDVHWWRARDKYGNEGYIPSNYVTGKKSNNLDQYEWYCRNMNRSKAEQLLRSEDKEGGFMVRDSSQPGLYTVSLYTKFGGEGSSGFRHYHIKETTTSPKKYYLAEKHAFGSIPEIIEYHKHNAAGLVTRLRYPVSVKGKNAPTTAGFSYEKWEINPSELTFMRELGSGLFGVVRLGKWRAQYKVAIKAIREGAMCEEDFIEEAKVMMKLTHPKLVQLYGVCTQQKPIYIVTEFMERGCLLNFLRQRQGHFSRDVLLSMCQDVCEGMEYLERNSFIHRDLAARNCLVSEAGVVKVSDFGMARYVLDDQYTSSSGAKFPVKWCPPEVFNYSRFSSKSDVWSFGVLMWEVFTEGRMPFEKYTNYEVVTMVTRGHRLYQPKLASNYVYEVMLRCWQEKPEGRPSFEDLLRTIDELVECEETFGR
Description: Platelets were isolated from platelet rich plasma (PRP) purchased from the Memorial Blood Bank (Minneapolis, Minn.) as previously described (Asselin et al. 1997) and used at a concentration of 3×10^9 cells/mL in a modified Tyrode's buffer (137 mM NaCl, 2.7 mM KCl, 0.9 mM MgCl2, 5.5 mM glucose, 3.3 mM NaH2PO4, 3.8 mM Hepes, pH 7.4). […] Platelets were then stimulated at 37° C. with 2 μg/mL (or 10 μg/mL) collagen or 0.1 U/mL thrombin (Chronolog Inc., Philadelphia, Pa.). Stimulation was stopped and platelets were lysed at the indicated time points by adding ice cold 3x Triton X-100 lysis buffer (150 mM NaCl, 15 mM EGTA, 3% Triton X-100, 3% Sodium deoxycholate, 0.3% SDS, 3 mM PMSF, 3 mM Na3 VO4, 60 μg/mL leupeptin, 60 μg/mL aprotinin, 50 mM Tris-HCl pH 7.4) and incubating for 1 hour on ice. […]
(§1) For each drug concentration, a BTK/TEC kinase activity index as determined by comparing the ratios of the kinase activity in phosphorimager units (PIU) and density of the protein bands in densitometric scanning units (DSU) to those of the baseline sample and using the formula: Activity Index=[PIU of kinase band/DSU of BTK/TEC protein band]test sample: [PIU of kinase band/DSU of BTK/TEC protein band]baseline control sample (FIGS. 1A-1D).

BTK = BTK (Homo sapiens, UniProt Q06187); experiment: BTK immune complex kinase assay from collagen-stimulated platelets; details: 100 μM
BTK, sequence (Q06187 whole entry): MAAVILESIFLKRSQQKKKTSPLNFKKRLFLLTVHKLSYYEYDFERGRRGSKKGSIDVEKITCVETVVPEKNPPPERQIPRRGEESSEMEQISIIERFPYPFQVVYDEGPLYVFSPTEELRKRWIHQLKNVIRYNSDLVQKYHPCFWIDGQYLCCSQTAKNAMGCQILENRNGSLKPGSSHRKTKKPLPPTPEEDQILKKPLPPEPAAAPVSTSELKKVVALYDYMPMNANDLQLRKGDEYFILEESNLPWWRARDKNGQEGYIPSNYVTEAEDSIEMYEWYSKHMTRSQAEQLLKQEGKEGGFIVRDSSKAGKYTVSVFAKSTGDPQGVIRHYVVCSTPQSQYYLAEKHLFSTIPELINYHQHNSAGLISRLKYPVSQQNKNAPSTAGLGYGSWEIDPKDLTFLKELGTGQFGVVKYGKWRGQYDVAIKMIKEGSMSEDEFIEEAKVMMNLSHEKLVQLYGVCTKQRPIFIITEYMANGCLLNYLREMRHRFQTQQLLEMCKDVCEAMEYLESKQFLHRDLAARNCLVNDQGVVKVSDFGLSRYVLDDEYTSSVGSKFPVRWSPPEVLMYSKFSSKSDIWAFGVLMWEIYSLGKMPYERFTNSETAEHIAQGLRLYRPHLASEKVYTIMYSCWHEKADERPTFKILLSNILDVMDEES
Description: Platelets were isolated from platelet rich plasma (PRP) purchased from the Memorial Blood Bank (Minneapolis, Minn.) as previously described (Asselin et al. 1997) and used at a concentration of 3×10^9 cells/mL in a modified Tyrode's buffer (137 mM NaCl, 2.7 mM KCl, 0.9 mM MgCl2, 5.5 mM glucose, 3.3 mM NaH2PO4, 3.8 mM Hepes, pH 7.4). […] Platelets were then stimulated at 37° C. with 2 μg/mL (or 10 μg/mL) collagen or 0.1 U/mL thrombin (Chronolog Inc., Philadelphia, Pa.). Stimulation was stopped and platelets were lysed at the indicated time points by adding ice cold 3x Triton X-100 lysis buffer (150 mM NaCl, 15 mM EGTA, 3% Triton X-100, 3% Sodium deoxycholate, 0.3% SDS, 3 mM PMSF, 3 mM Na3 VO4, 60 μg/mL leupeptin, 60 μg/mL aprotinin, 50 mM Tris-HCl pH 7.4) and incubating for 1 hour on ice. Following removal of the membranous fraction by centrifugation (12,000xg, 30 min) the samples were subjected to immunoprecipitation utilizing antibodies raised against BTK (Santa Cruz Biotechnologies, Santa Cruz, Calif.), TEC (Upstate Biotechnology, Lake Placid, N.Y.) and PLCγ2 (Santa Cruz Biotechnologies, Santa Cruz, Calif.) (Vassilev et al., 1999). Immunoprecipitations, immune-complex protein kinase assays, and immunoblotting on PVDF membranes (Milipore, Bedford, Mass.) using the ECL chemiluminescence detection system (Amersham Life Sciences, Arlington Heights, Ill.) were conducted as described previously (Mahajan et al., 1999; Sudbeck et al., 1999; Uckun et al., 1996a; Uckun et al., 1996b).
For immunoblotting, antibodies against phosphotyrosine (Transduction Labs, Lexington, Ky.), BTK (Santa Cruz Biotechnologies, Santa Cruz, Calif.), TEC (Upstate Biotechnology, Lake Placid, N.Y.) and PLCγ2 (Santa Cruz Biotechnologies, Santa Cruz, Calif.) were used. Horse radish peroxidase-conjugated sheep anti-mouse, donkey anti-rabbit secondary antibodies were purchased from Transduction Laboratories (Lexington, Ky.). Horse radish peroxidase-conjugated sheep anti-goat antibodies were purchased from Santa Cruz (Santa Cruz, Calif.). Following electrophoresis, kinase gels were dried onto Whatman 3M filter paper and subjected to phosphoimaging on a Molecular Imager (Bio-Rad, Hercules, Calif.) as well as autoradiography on film. Similarly, all chemiluminescent BTK/TEC Western blots were subjected to three dimensional densitometric scanning using the Molecular Imager and Imaging Densitometer using the Molecular Analyst/Macintosh version 2.1 software following the specifications of the manufacturer (Bio-Rad).
Antibodies raised against BTK and TEC utilized for immunoprecipitations and Western blot analysis were purchased from Santa Cruz (Santa Cruz, Calif.).
as §1
The samples were subjected to immunoprecipitation utilizing antibodies raised against BTK. The BTK immune complexes were subjected to immune kinase assays.

[1] = Pharmacokinetics in mice (HPLC plasma levels); details: mouse, in vivo
Description: All collected blood samples were heparinized and centrifuged at 7,000xg for 5 minutes in a microcentrifuge to obtain plasma. The plasma samples were stored at −20° C. until analysis.
The analytical column was equilibrated and eluted under isocratic conditions utilizing a flow rate of 1.0 mL/min at ambient temperature. The wavelength of detection was set at 294 nm. Peak width, response time, and slit were set at >0.03 min, 0.55 sec, and […], respectively. […] Following centrifugation at 300xg for 5 minutes, the supernatant was used for HPLC analysis using a system comprised of a Hewlett Packard (HP) series 1100 instrument equipped with an automated electronic degasser, a quaternary pump, an autosampler, an automatic thermostatic column compartment, diode array detector and a computer with a Chemstation software program for data analysis (Chen and Uckun, 1999; Malaviya et al., 2000). All extraction procedures were carried out at room temperature.
The unweighed linear regression analysis of the standard curves was performed by using the CA-Cricket Graph III computer program, Version 1.0 (Computer Association, Inc., Islandia, N.Y.). […] Pharmacokinetic modeling and pharmacokinetic parameter estimations were carried out using the pharmacokinetics software, WinNonlin Program, Professional version 3.0 (Pharsight Inc., Mountain view, Calif.) (Chen and Uckun, 1999; Malaviya et al. 2000; Uckun et al., 1999).
The elimination half-life was estimated by linear regression analysis of the terminal phase of the plasma concentration time profile. The area under the concentration time curve (AUC) was calculated by the linear trapezoidal rule between the first (0 hours) and last sampling time plus C/k, where C is the concentration at the last sampling time and k is the elimination rate constant. The systemic clearance (CL) was determined by dividing the does by the AUC (Chen and Uckun, 199; Malaviya et al., 2000; Uckun et al., 1999).
A one-compartment, first order pharmacokinetic model was fit into the pharmacokinetic data. The numbers represent the average values estimated from the composite plasma concentration-time curve for pooled data. The mean±SEM values are indicated in parentheses. The values for the apparent volume of distribution (Vc) and systemic clearance (CL) were not corrected for bioavailability. t½=terminal elimination half-life; tmax=the time required to reach the maximum plasma drug concentration after i.p. administration.

PLCγ2 = experiment: Collagen-induced PLCγ2 tyrosine phosphorylation in platelets (immunoprecipitation/Western blot); type: cell-based, human; details: 100 μM, 30 min pretreatment; 2 μg/mL collagen
From the text: The membrane was stripped and re-probed with antibodies raised against PLCγ2. An increase in the level of phosphorylated PLCγ2 was seen between 30 and 45 seconds following collagen stimulation.

[2] = 30 min, 0 seconds after 2 μg/ml collagen
[3] = 30 min, 90 seconds after 2 μg/ml collagen

Question: With `C/C(O)=C(\C#N)C(=O)Nc1cc(Br)ccc1Br` [LFM-A13, α-cyano-β-hydroxy-β-methyl-N-(2,5-dibromophenyl)-propenamide] as the molecule, how does the “% control inositol 1,4,5-triphosphate production (peak response)” value (platelets; 100 μM LFM-A13 alone, no collagen) read?
Answer: Its value is 75 % control.

Question: What about the “% control inositol 1,4,5-triphosphate production (peak response)” value (platelets; 100 μM LFM-A13 and 2 μg/ml collagen) of the same molecule?
Answer: The value was 75 % control.

Question: What about the “Ins-1,4,5-P3 levels between 30 and 60 seconds after collagen stimulation” value (platelets; 100 μM pretreatment) of the same molecule?
Answer: The value was “remained at baseline”.

Question: And the “collagen-stimulated PI-PLC activity” value (platelets; 100 μM, 30 min, 2 μg/ml collagen)?
Answer: The value was “inhibited collagen-stimulated PI-PLC activity”.

Question: What about the “Ins-1,4,5-P3 levels” value (platelets; 100 μM, 30 min pretreatment, 30 seconds after collagen stimulation) of the same molecule?
Answer: The value was 17.8±1.4 pmols/10^9 platelets.

Question: What about the inhibition at 100 µM (platelets; Homo sapiens, Platelet, read-out: % inhibition of inositol 1,4,5-triphosphate production) of the same molecule?
Answer: Its inhibition at 100 µM is 100%.

Question: And the “baseline and collagen-induced SRC activity in platelets” value (SRC)?
Answer: Its value is “did not inhibit the baseline activity of SYK or SRC or prevent collagen-induced SYK and SRC activation”.

Question: What about the “collagen-induced stimulation of TEC kinase in platelets” value (TEC kinase; collagen-stimulated platelets) of the same molecule?
Answer: Its value is “prevented collagen-induced stimulation of TEC kinase”.

Question: And the “baseline activity of TEC in unstimulated platelets” value (TEC kinase; unstimulated platelets)?
Answer: Its value is “did not reduce the baseline activity of TEC”.

Question: What about the “DSU (density of BTK protein band, densitometric scanning units)” value (BTK; [2]) of the same molecule?
Answer: Its value is 1236.

Question: And the “PIU (BTK autophosphorylation, phosphorimager units)” value (BTK; [2])?
Answer: The value was 78.

Question: And the “BTK kinase activity in collagen-stimulated platelets” value (BTK; 30 min, 2 μg/mL collagen)?
Answer: Its value is “completely prevented collagen-induced stimulation of BTK; also recorded: significantly inhibited BTK kinase activity”.

Question: What about the “DSU (density of BTK protein band, densitometric scanning units)” value (BTK; [3]) of the same molecule?
Answer: The value was 1432.

Question: What about the “PIU (BTK autophosphorylation, phosphorimager units)” value (BTK; [3]) of the same molecule?
Answer: Its value is 68.

Question: What about the “reduction of baseline BTK activity in platelets” value (BTK; 30 min at 37° C.) of the same molecule?
Answer: The value was > 90%.

Question: And the AUC ([1]; ip, 10 mg/kg)?
Answer: The AUC was 66.3 ± 3 µM·h.

Question: And the Cmax ([1]; ip, 10 mg/kg)?
Answer: Its Cmax is 94 ± 8 µM.

Question: And the AUC ([1]; ip, 20 mg/kg)?
Answer: The AUC was 183 ± 14 µM·h.

Question: And the Cmax ([1]; ip, 20 mg/kg)?
Answer: The Cmax was 243 ± 16 µM.

Question: What about the AUC ([1]; ip, 25 mg/kg) of the same molecule?
Answer: Its AUC is 308 ± 31 µM·h.

Question: What about the Cmax ([1]; ip, 25 mg/kg) of the same molecule?
Answer: Its Cmax is 383 ± 35 µM.

Question: What about the AUC ([1]; ip, 40 mg/kg) of the same molecule?
Answer: The AUC was 653 ± 47 µM·h.

Question: What about the Cmax ([1]; ip, 40 mg/kg) of the same molecule?
Answer: Its Cmax is 640 ± 44 µM.

Question: And the AUC ([1]; ip, 50 mg/kg)?
Answer: The AUC was 1020 ± 31 µM·h.

Question: And the Cmax ([1]; ip, 50 mg/kg)?
Answer: The Cmax was 940 ± 16 µM.

Question: What about the AUC ([1]; iv, 25 mg/kg) of the same molecule?
Answer: Its AUC is 384 ± 30 µM·h.

Question: What about the Cmax ([1]; iv, 25 mg/kg) of the same molecule?
Answer: The Cmax was 731 ± 22 µM.

Question: What about the “collagen-induced tyrosine phosphorylation of PLCγ2” value (PLCγ2) of the same molecule?
Answer: The value was “no enhanced tyrosine phosphorylation of PLCγ2 was detected; also recorded: No phosphorylation of PLCγ2 was noted”.
